Data on 25 compounds can be found in ChEMBL document CHEMBL1124133, “Synthesis and hypolipidemic activity of 2-substituted isobutyric acid derivatives” (1988).

Common to all, as to assay type: functional
Details in all cases: route oral

In assay [1] the test system is Rattus norvegicus. Kind of assay: Hypolipidemic effects in rat plasma high density lipoprotein cholesterol (HDLC) by peroral administration at 100 mg/kg dose.
Assay [2] concerns Rattus norvegicus. Kind of assay: Hypolipidemic effects in rat plasma Triglyceride (TG) by peroral administration at 100 mg/kg dose.
Assay [3] concerns Rattus norvegicus. The assay is described as follows: Hypolipidemic effects in rat fed a high cholesterol diet (HC) by peroral administration at 100 mg/kg dose.
Assay [4] has as its system Rattus norvegicus. The assay is described as follows: Hypolipidemic effect in rat plasma Total cholesterol (TC) by peroral administration at 100 mg/kg dose.
Assay [5] concerns Rattus norvegicus. The assay is described as follows: Hypolipidemic effects in rat fed a normal diet by peroral administration at 100 mg/kg dose.
For assay [6], the system named is Rattus norvegicus. Kind of assay: Hypolipidemic effects of compound on rat plasma Triglyceride (TG) level after by peroral administration at 100 mg/kg dose.
The test system of assay [7] is Rattus norvegicus. The assay is described as follows: Hypolipidemic effects in rat fed a normal diet by peroral administration at 100 mg/kg dose(increase in liver weight with respect to body weight mg/g).
For assay [8], the system named is Rattus norvegicus. The assay is described as follows: Hypolipidemic effect on rat plasma Total cholesterol (TC) level by peroral administration at 100 mg/kg dose.
For assay [9], the system named is Rattus norvegicus. The assay is described as follows: Hypolipidemic effects of compound on rat plasma high density lipoprotein cholesterol (HDLC) level after peroral administration at 100 mg/kg dose.
In assay [10] the test system is Rattus norvegicus. The assay is described as follows: Hypolipidemic effects in rat fed a high cholesterol diet (HC) by peroral administration at 100 mg/kg dose.(increase in liver weight with respect to body weight mg/g).
Assay [11] has as its system Rattus norvegicus. Kind of assay: Hypolipidemic effects of compound on rat plasma Triglyceride (TG) level after peroral administration at 100 mg/kg dose.
Assay [12] relates to Rattus norvegicus. The assay is described as follows: Hypolipidemic effects in rat fed a high cholesterol diet (HC) by peroral administration at 100 mg/kg dose(increase in liver weight with respect to body weight mg/g).
Assay [13] relates to Rattus norvegicus. Kind of assay: Hypolipidemic effects in rat fed a normal diet by peroral administration at 100 mg/kg dose.(increase in liver weight with respect to body weight mg/g).
In assay [14] the test system is Rattus norvegicus. The assay is described as follows: Hypolipidemic effects in rat fed a high cholesterol diet (HC) by peroral administration at 100 mg/kg dose. (increase in liver weight with respect to body weight mg/g).
The subject of assay [15] is Rattus norvegicus. The assay is described as follows: Hypolipidemic effects in rat fed a high cholesterol diet (HC) by peroral administration at 100 mg/kg dose (increase in liver weight with respect to body weight mg/g).

The structures appear in SMILES notation.

For `CC(C)(CCCCCCCCCCOc1ccc(CCCCc2ccccc2)cc1)C(=O)O`, the HDL-C in the assay with Rattus norvegicus [1] worked out at 48.6 mg/dL. Also, the TG with Rattus norvegicus [2] amounted to 52.8 mg/dL. In addition, the Liver weight with Rattus norvegicus [3] was 57.2 mg (g of body weight)-1. In the assay on Rattus norvegicus [4], the TC came to 248.6 mg/dL.
Regarding `CCOC(=O)C(C)(C)Oc1ccc(Cl)cc1` [CLOFIBRATE], the Liver weight in the assay on Rattus norvegicus [5] is listed as <43.1 mg (g of body weight)-1; in the assay on Rattus norvegicus [3] it was 52.8 mg (g of body weight)-1. Also, in the assay on Rattus norvegicus [1], the HDL-C was determined as 29.4 mg/dL. The TG in the assay on Rattus norvegicus [2] was under 51.8 mg/dL. This compound also registered a TC with Rattus norvegicus [4] of under 251.2 mg/dL.
The like results for `CC(C)(CCCCCCCOc1ccc(CCCCc2ccccc2)cc1)C(=O)O` were, in that order, <40.1 mg (g of body weight)-1, 57.6 mg (g of body weight)-1, under 65.2 mg/dL, 43 mg/dL and under 145.7 mg/dL.
Regarding `Cc1cnc(COC(=O)C(C)(C)CCCCOc2ccc(CCCCc3ccccc3)cc2)cn1`, in the assay with Rattus norvegicus [6], the TG worked out at 36.9 mg/dL. Further, the Liver weight was 38.2 mg (g of body weight)-1 with Rattus norvegicus [7] and 59.6 mg (g of body weight)-1 with Rattus norvegicus [10]. Moreover, the TC with Rattus norvegicus [8] was 181.5 mg/dL. Moreover, the HDL-C in the assay on Rattus norvegicus [9] turned out to be 51.7 mg/dL.
Consider `CC(C)(CCCOc1ccc(CCc2ccccc2)cc1)C(=O)O`, for which, in the assay on Rattus norvegicus [11], the TG came out at 92.7 mg/dL. The TC in the assay with Rattus norvegicus [8] came out at 282.8 mg/dL. Further, in the assay with Rattus norvegicus [9], the HDL-C was found to be 32 mg/dL. The Liver weight in the assay on Rattus norvegicus [10] is listed as 53.5 mg (g of body weight)-1.
As for `CC(C)(CCCOc1ccc(CCNC(=O)c2ccccc2)cc1)C(=O)O`, the Liver weight with Rattus norvegicus [12] is given as 57 mg (g of body weight)-1. This compound yielded a TG in the assay with Rattus norvegicus [11] of 49.4 mg/dL. The TC in the assay on Rattus norvegicus [8] came out at 204.1 mg/dL. In the assay with Rattus norvegicus [9], this compound had an HDL-C of 42.1 mg/dL.
Regarding `CC(C)(CCCOc1ccc(CCCCc2ccccc2)cc1)C(=O)O`, the TG in the assay on Rattus norvegicus [11] amounted to 76.9 mg/dL. The TC in the assay with Rattus norvegicus [8] was determined as 258.3 mg/dL. In the assay with Rattus norvegicus [9], this compound showed an HDL-C of 35.2 mg/dL. The Liver weight in the assay with Rattus norvegicus [10] is given as 54.5 mg (g of body weight)-1.
Compound `Cc1cnc(C(=O)OCC(C)(C)CCCCOc2ccc(CCCCc3ccccc3)cc2)c[n+]1[O-]` registered an HDL-C with Rattus norvegicus [1] of 45.3 mg/dL. In the assay on Rattus norvegicus [2], this compound gave a TG of 45.8 mg/dL. Also, the Liver weight with Rattus norvegicus [3] is reported as 57.8 mg (g of body weight)-1. Further, the TC in the assay with Rattus norvegicus [4] was under 146.6 mg/dL.
For `CC(C)(CCCOc1ccc(CCCCCCc2ccccc2)cc1)C(=O)O`, the Liver weight in the assay on Rattus norvegicus [12] was 52.1 mg (g of body weight)-1. In addition, the TG with Rattus norvegicus [6] turned out to be 86.2 mg/dL. Besides, the TC with Rattus norvegicus [8] is 256.1 mg/dL. For the same compound, the HDL-C in the assay with Rattus norvegicus [9] came out at 38.4 mg/dL.
`CC(C)(CCCOc1ccc(CCCCCc2ccccc2)cc1)C(=O)O`: the TG in the assay on Rattus norvegicus [6] amounted to 71.9 mg/dL. The Liver weight is given as 40 mg (g of body weight)-1 with Rattus norvegicus [13] and 54.1 mg (g of body weight)-1 with Rattus norvegicus [10]. The TC with Rattus norvegicus [8] is 261.9 mg/dL. Besides, in the assay with Rattus norvegicus [9], the HDL-C is 38.1 mg/dL.
Turning to `CC(C)(CCCOc1ccc(C(=O)c2ccccc2)cc1)C(=O)O`, the Liver weight in the assay with Rattus norvegicus [12] is given as 81.8 mg (g of body weight)-1. In the assay on Rattus norvegicus [11], this compound showed a TG of 53.6 mg/dL. Further, the TC in the assay with Rattus norvegicus [8] was 260.8 mg/dL. The same compound had an HDL-C in the assay with Rattus norvegicus [9] of 57.6 mg/dL.
Turning to `CC(C)(CCCCOc1ccc(CCCCc2ccccc2)cc1)C(=O)OCc1cccnc1`, in the assay on Rattus norvegicus [11], the TG was 43.9 mg/dL. In addition, the Liver weight in the assay on Rattus norvegicus [7] is reported as 38 mg (g of body weight)-1; with Rattus norvegicus [10], 58.2 mg (g of body weight)-1. Further, the TC in the assay with Rattus norvegicus [8] is 154.3 mg/dL. The HDL-C with Rattus norvegicus [9] amounted to 59.6 mg/dL.
In the case of `CC(C)(CCCCCCCCCOc1ccc(CCCCc2ccccc2)cc1)C(=O)O`, the Liver weight in the assay with Rattus norvegicus [5] is listed as <38.2 mg (g of body weight)-1; in the assay on Rattus norvegicus [3], 57.5 mg (g of body weight)-1. In the assay with Rattus norvegicus [1], this compound came in with an HDL-C of under 55 mg/dL. In the assay with Rattus norvegicus [2], this compound returned a TG of 57.3 mg/dL. The same compound showed a TC in the assay on Rattus norvegicus [4] of under 173.6 mg/dL.
The like results for `CC(C)(CCCCCCCCOc1ccc(CCCCc2ccccc2)cc1)C(=O)O` were, in that order, <39.3 mg (g of body weight)-1, 58.4 mg (g of body weight)-1, under 53.7 mg/dL, 47.6 mg/dL and under 150 mg/dL.
Take `CC(C)(CCCCCOc1ccc(CCCCc2ccccc2)cc1)C(=O)O`: the TG in the assay with Rattus norvegicus [11] is 60.4 mg/dL. The Liver weight with Rattus norvegicus [13] is on record as 36.7 mg (g of body weight)-1; in the assay with Rattus norvegicus [10], 58.3 mg (g of body weight)-1. Further, the TC with Rattus norvegicus [8] was found to be 190.6 mg/dL. The same compound yielded an HDL-C in the assay on Rattus norvegicus [9] of 52.4 mg/dL.
Consider `CC(C)(CCCOc1ccc(-c2ccccc2)cc1)C(=O)O`, for which the Liver weight in the assay with Rattus norvegicus [14] is recorded as 54.7 mg (g of body weight)-1. This compound had a TG in the assay on Rattus norvegicus [11] of 54.3 mg/dL. The compound further showed a TC with Rattus norvegicus [8] of 222.7 mg/dL. The HDL-C in the assay on Rattus norvegicus [9] was 39.9 mg/dL.
In the assay on Rattus norvegicus [11], `Cc1ccc(C)c(CCCCc2ccc(OCCCCC(C)(C)C(=O)O)cc2)c1` showed a TG of 34.4 mg/dL. Besides, the results for the Liver weight with Rattus norvegicus [7] and in the assay on Rattus norvegicus [10] were 40 mg (g of body weight)-1 and 59.9 mg (g of body weight)-1, respectively. For the same compound, the TC in the assay on Rattus norvegicus [8] was 125.9 mg/dL. This compound gave an HDL-C with Rattus norvegicus [9] of 56 mg/dL.
For `CC(C)(CCCCOc1ccc(CCCCc2ccccc2)cc1)COC(=O)c1cccnc1`, in that order: 46.7 mg/dL, 39.7 mg (g of body weight)-1, 57.8 mg (g of body weight)-1, 152 mg/dL and 49.9 mg/dL.
For `CC(C)(CCCCCCOc1ccc(CCCCc2ccccc2)cc1)C(=O)O`, in that order: 48.9 mg/dL, 42.3 mg (g of body weight)-1, 60.2 mg (g of body weight)-1, 150.7 mg/dL and 58.1 mg/dL.
Turning to `Cc1cnc(C(=O)OCC(C)(C)CCCCOc2ccc(CCCCc3ccccc3)cc2)cn1`, the TG in the assay with Rattus norvegicus [11] is 41 mg/dL. Besides, in the assay with Rattus norvegicus [8], the TC came to 145.1 mg/dL. This compound also gave an HDL-C with Rattus norvegicus [9] of 47.6 mg/dL. Further, the Liver weight in the assay with Rattus norvegicus [10] was 58 mg (g of body weight)-1.
For the compound `CC(C)(Oc1ccc(CCCCc2ccccc2)cc1)C(=O)O`, the Liver weight was 67.1 mg (g of body weight)-1 in the assay on Rattus norvegicus [12] and 54.6 mg (g of body weight)-1 with Rattus norvegicus [7]. In the assay on Rattus norvegicus [11], this compound yielded a TG of 41.3 mg/dL. In addition, the TC in the assay on Rattus norvegicus [8] turned out to be 194.6 mg/dL. The compound further yielded an HDL-C with Rattus norvegicus [9] of 50.7 mg/dL.
As to `CC(C)(CCCOc1ccc(CCCc2ccccc2)cc1)C(=O)O`, the TG in the assay with Rattus norvegicus [6] came out at 79.5 mg/dL. Besides, the values for the Liver weight in the assay with Rattus norvegicus [13] and in the assay with Rattus norvegicus [10] were 39.1 mg (g of body weight)-1 and 54 mg (g of body weight)-1, respectively. Moreover, in the assay on Rattus norvegicus [8], the TC is 217.5 mg/dL. In addition, the HDL-C with Rattus norvegicus [9] worked out at 40.6 mg/dL.
`Cc1ccc(CCCCc2ccc(OCCCCC(C)(C)C(=O)O)cc2)c(C)c1`: the Liver weight in the assay on Rattus norvegicus [12] is 62.3 mg (g of body weight)-1; in the assay with Rattus norvegicus [7], 41.8 mg (g of body weight)-1. Also, the TG in the assay with Rattus norvegicus [11] came to 37 mg/dL. This compound showed a TC in the assay on Rattus norvegicus [8] of 173.9 mg/dL. This compound showed an HDL-C in the assay on Rattus norvegicus [9] of 73 mg/dL.
`Cc1ccc(C)c(OCCCC(C)(C)C(=O)O)c1` [GEMFIBROZIL] displayed a TG in the assay with Rattus norvegicus [11] of 53.1 mg/dL. In addition, the Liver weight in the assay with Rattus norvegicus [13] is given as 51.4 mg (g of body weight)-1; in the assay with Rattus norvegicus [15], 54.8 mg (g of body weight)-1. Also, the TC with Rattus norvegicus [8] stood at 358.7 mg/dL. The compound further registered an HDL-C in the assay with Rattus norvegicus [9] of 51.5 mg/dL.
Regarding `CC(C)(CCCOc1ccc(Cc2ccccc2)cc1)C(=O)O`, in the assay on Rattus norvegicus [14], the Liver weight is 53.2 mg (g of body weight)-1. Besides, in the assay on Rattus norvegicus [11], the TG came to 84.7 mg/dL. This compound registered a TC in the assay with Rattus norvegicus [8] of 284.4 mg/dL. In the assay with Rattus norvegicus [9], this compound came in with an HDL-C of 29.9 mg/dL.
